How the values were obtained:
[1] = system: T1, MCM double hexamer (MCM-DH, Mcm2-7); assay: cryo-EM structure; parameters: species or system Saccharomyces cerevisiae; conditions: with DDK bound, nucleotide-binding pockets of MCM subunits
T1 construct: endogenous double hexamer from G1 chromatin, TEV-3xFLAG tag on Mcm7 or Mcm2

[2] = target: T2, DDK (Dbf4-Cdc7 kinase) (Saccharomyces cerevisiae, UniProt P06243); assay: cryo-EM structure; format: binding; conditions: bound to MCM double hexamer, glutaraldehyde Grafix, 1 mM ATP-γ-S, 8 mM Mg(OAc)2; Cdc7 active center
T2 construct: Dbf4 704 residues; with DDK kinase regulatory subunit DBF4
T2 sequence (P06243 whole entry): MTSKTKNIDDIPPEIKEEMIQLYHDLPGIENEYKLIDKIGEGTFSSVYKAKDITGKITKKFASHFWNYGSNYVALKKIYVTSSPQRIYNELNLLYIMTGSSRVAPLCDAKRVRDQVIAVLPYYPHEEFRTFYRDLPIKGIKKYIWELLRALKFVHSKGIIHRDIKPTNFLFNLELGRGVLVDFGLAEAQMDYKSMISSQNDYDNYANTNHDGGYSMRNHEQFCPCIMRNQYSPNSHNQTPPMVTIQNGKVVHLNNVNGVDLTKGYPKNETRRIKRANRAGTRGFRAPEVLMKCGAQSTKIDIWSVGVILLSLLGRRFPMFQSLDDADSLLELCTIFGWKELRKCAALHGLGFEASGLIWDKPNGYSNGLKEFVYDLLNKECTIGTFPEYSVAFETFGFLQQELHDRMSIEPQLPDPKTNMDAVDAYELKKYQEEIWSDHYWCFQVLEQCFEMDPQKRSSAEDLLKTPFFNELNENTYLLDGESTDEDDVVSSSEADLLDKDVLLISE
T2 sequence (P32325 whole entry partner): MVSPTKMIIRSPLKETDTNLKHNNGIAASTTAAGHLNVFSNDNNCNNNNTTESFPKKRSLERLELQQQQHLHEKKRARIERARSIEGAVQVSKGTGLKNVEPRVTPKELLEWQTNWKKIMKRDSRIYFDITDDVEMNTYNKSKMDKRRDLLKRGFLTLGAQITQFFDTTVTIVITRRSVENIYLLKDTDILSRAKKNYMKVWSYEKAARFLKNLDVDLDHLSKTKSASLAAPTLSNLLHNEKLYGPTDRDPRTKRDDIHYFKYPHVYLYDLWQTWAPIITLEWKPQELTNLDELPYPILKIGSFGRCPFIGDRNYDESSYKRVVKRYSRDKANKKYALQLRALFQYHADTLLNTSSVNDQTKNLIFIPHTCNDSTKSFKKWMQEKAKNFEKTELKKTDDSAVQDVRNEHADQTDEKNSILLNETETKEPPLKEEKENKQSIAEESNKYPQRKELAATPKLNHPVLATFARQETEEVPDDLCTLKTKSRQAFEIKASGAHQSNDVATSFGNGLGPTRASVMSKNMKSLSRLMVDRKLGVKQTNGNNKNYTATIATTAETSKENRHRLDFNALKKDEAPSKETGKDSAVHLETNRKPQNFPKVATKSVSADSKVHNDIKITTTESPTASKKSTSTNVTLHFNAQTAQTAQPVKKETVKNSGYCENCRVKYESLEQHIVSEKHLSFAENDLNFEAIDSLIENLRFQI

Structure (SMILES)	cryo-EM structure ([1]; no ADP added)	cryo-EM structure [2]	cryo-EM structure ([1]; 1 mM ATP-γ-S)
Nc1ncnc2c1ncn2[C@@H]1O[C@H](COP(=O)(O)OP(=O)(O)O)[C@@H](O)[C@H]1O [ADP]	nucleotide-binding pockets of MCM subunits were modeled as ATP-γ-S or ADP		
Nc1ncnc2c1ncn2[C@@H]1O[C@H](COP(=O)(O)OP(=O)(O)OP(O)(O)=S)[C@@H](O)[C@H]1O [ATP-γ-S]		Thr506, is situated close to the γ-phosphate of the ATP-γ-S nucleotide in the active center	nucleotide-binding pockets of MCM subunits were modeled as ATP-γ-S or ADP

Source: publication PMC8927117, “Structural Insight into the MCM double hexamer activation by Dbf4-Cdc7 kinase” (Nature Communications, 2022)
